# Data: US20110158980A1, “METHODS TO TREAT AND SCREEN FOR AGENTS TO TREAT OBESITY” (TRUSTEES OF TUFTS COLLEGE, priority 2008, published 2011)
# Tested on: 3T3-L1 adipocytes
# Assay: Metabolic flux analysis (stoichiometric model) of adipocyte intermediary metabolism
# Type: cell-based
# Protocol: 3T3-L1 preadipocytes were plated onto 24-well plates and expanded in preadipocyte growth medium consisting of DMEM supplemented with calf serum (10% v/v), penicillin and streptomycin. Medium was replenished every other day. Two days post-confluence, the cells were induced to differentiate using an adipogenic cocktail (1 μg/ml insulin, 0.5 mM isobutylmethylxanthine, and 1 μM dexamethasone) added to a basal medium (DMEM with 10% fetal bovine serum and penicillin/streptomycin). After 48 hrs, the first medium was replaced with a second induction medium consisting of the basal adipocyte medium supplemented with only insulin. […] This basal medium was replenished every other day during the remainder of the culture experiments.
# A stoichiometric model of adipocyte central carbon metabolism was constructed as described previously (Si Y, Yoon J, Lee K. American journal of physiology 2007; 292:E1637-46). The model consisted of the major pathways of central carbon metabolism (Table 1). Intracellular fluxes were estimated by solving a constrained non-linear optimization problem with stoichiometric and thermodynamic constraints (Nolan R P, Fenley A P, Lee K. Metab Eng 2006; 8:30-45).
# [1] = PA 10 mM, day 12 post-induction
smiles,measurement,setting,value
O=C(O)Cc1ccccc1 [phenylacetate],"Flux RXN 65 Mitochondrial exchange: 2-Oxoglutarate in, Malate out","PA 5 mM, day 12 post-induction",36.9 ± 7.3 mmol/g-DNA/2 days
same,"Flux RXN 66 Mitochondrial exchange: Pi in, Malate out","PA 5 mM, day 12 post-induction",79.9 ± 9.7 mmol/g-DNA/2 days
same,Flux RXN 1 Glycolysis: Glucose + ATP = Glucose 6-P + ADP,[1],341.0 ± 14.4 mmol/g-DNA/2 days
same,Flux RXN 3 Glycolysis: Fructose 6-P + ATP = Glyceraldehyde 3-P + Glycerone-P + ADP,[1],332.9 ± 13.7 mmol/g-DNA/2 days
same,Flux RXN 4 Glycolysis: Glycerone-P = Glyceraldehyde 3-P,[1],309.4 ± 13.0 mmol/g-DNA/2 days
same,Flux RXN 5 Glycolysis: Glyceraldehyde 3-P + NAD+ + ADP + Pi = P-Enolpyruvate + ATP + H2O,[1],650.5 ± 26.0 mmol/g-DNA/2 days
same,Flux RXN 6 Glycolysis: P-Enolpyruvate + ADP + H+ = Pyruvate + ATP,[1],725.6 ± 35.8 mmol/g-DNA/2 days
same,Flux RXN 7 Glycolysis: Pyruvate + NADH + H+ = Lactate + NAD+,[1],427.8 ± 9.4 mmol/g-DNA/2 days
same,Flux RXN 8 Pentose phosphate pathway: Glucose 6-P + 2 NADP+ + H2O = Ribulose 5-P + CO2 + 2 NADPH + 2 H+,[1],24.3 ± 18.5^ mmol/g-DNA/2 days
same,Flux RXN 9 Pentose phosphate pathway: 3 Ribulose 5-P = 2 Fructose 6-P + Glyceraldehyde 3-P,[1],8.1 ± 6.2^ mmol/g-DNA/2 days
same,Flux RXN 10 TCA cycle (mitochondria) (PDC),[1],233.7 ± 25.1 mmol/g-DNA/2 days
same,Flux RXN 12 TCA cycle (mitochondria),[1],132.2 ± 19.3 mmol/g-DNA/2 days
same,Flux RXN 13 TCA cycle (mitochondria),[1],158.6 ± 26.1 mmol/g-DNA/2 days
same,Flux RXN 14 TCA cycle (mitochondria),[1],169.9 ± 26.6 mmol/g-DNA/2 days
same,Flux RXN 15 TCA cycle (mitochondria),[1],170.1 ± 27.0 mmol/g-DNA/2 days
same,Flux RXN 16 TCA cycle (mitochondria),[1],110.2 ± 17.8 mmol/g-DNA/2 days
same,Flux RXN 17 TCA cycle: Citrate + CoA + ATP = Acetyl-CoA + Oxaloacetate + ADP + Pi,[1],75.1 ± 16.4 mmol/g-DNA/2 days
same,Flux RXN 18 TCA cycle: Oxaloacetate + NADH + H+ = Malate + NAD+,[1],0.0 ± 0.0^ mmol/g-DNA/2 days
same,Flux RXN 19 TCA cycle: Malate + NADP+ = Pyruvate + CO2 + NADPH,[1],59.9 ± 9.2 mmol/g-DNA/2 days
same,Flux RXN 20 TCA cycle: Citrate + NADP+ = 2-Oxoglutarate + CO2 + NADPH + H+,[1],26.4 ± 6.9 mmol/g-DNA/2 days
same,Flux RXN 21 TCA cycle: Oxaloacetate + ATP = P-Enolpyruvate + CO2 + ADP,[1],75.1 ± 16.4 mmol/g-DNA/2 days
same,Flux RXN 22 Oxidative phosphorylation (NADH + 0.5 O2),[1],213.9 ± 89.2 mmol/g-DNA/2 days
same,Flux RXN 23 Oxidative phosphorylation (FADH2 + 0.5 O2),[1],189.1 ± 27.3 mmol/g-DNA/2 days
same,Flux RXN 24 Palmitate biosynthesis,[1],9.4 ± 2.0 mmol/g-DNA/2 days
same,Flux RXN 25 Tripalmitoylglycerol biosynthesis: Glycerone-P + 3 Palmitate to Tripalmitoylglycerol,[1],23.5 ± 3.0 mmol/g-DNA/2 days
same,Flux RXN 26 Tripalmitoylglycerol + 3 H2O = Glycerol + 3 Palmitate,[1],20.6 ± 2.4 mmol/g-DNA/2 days
same,Flux RXN 27 Tripalmitoylglycerol accumulation,[1],2.9 ± 0.6 mmol/g-DNA/2 days
same,Flux RXN 28 Metabolism of ketone bodies,[1],7.8 ± 0.2 mmol/g-DNA/2 days
same,Flux RXN 29 Metabolism of ketone bodies,[1],0.0 ± 0.0^ mmol/g-DNA/2 days
same,Flux RXN 30 Metabolism of ketone bodies (to 3-Hydroxybutyrate),[1],15.9 ± 0.7 mmol/g-DNA/2 days
same,Flux RXN 31 Amino acid metabolism: Pyruvate + NH4+ + NADPH = Alanine,[1],0.5 ± 0.1 mmol/g-DNA/2 days
same,Flux RXN 32 Amino acid metabolism: Aspartate + NH4+ = Asparagine,[1],2.9 ± 0.2 mmol/g-DNA/2 days
same,Flux RXN 33 Amino acid metabolism: Aspartate = Oxaloacetate + NH4+ + NADH,[1],0.0 ± 0.0^ mmol/g-DNA/2 days
same,Flux RXN 34 Amino acid metabolism: Cysteine = Pyruvate + NH4+ + NADH,[1],0.0 ± 0.0^ mmol/g-DNA/2 days
same,Flux RXN 35 Amino acid metabolism: Glutamate = 2-Oxoglutarate + NH4+ + NADH,[1],0.0 ± 0.0 mmol/g-DNA/2 days
same,Flux RXN 36 Amino acid metabolism: Glutamate + NH4+ + ATP = Glutamine,[1],0.0 ± 0.0 mmol/g-DNA/2 days
same,Flux RXN 37 Amino acid metabolism: Serine + THF = Glycine,[1],6.2 ± 0.4^ mmol/g-DNA/2 days
same,Flux RXN 38 Amino acid metabolism: Histidine + THF = Glutamate + NH4+,[1],0.5 ± 0.1 mmol/g-DNA/2 days
same,Flux RXN 39 Amino acid metabolism: Isoleucine + 2 CoA,[1],7.5 ± 0.2 mmol/g-DNA/2 days
same,Flux RXN 40 Amino acid metabolism: Leucine + CoA + CO2 + ATP,[1],7.9 ± 0.2 mmol/g-DNA/2 days
same,Flux RXN 41 Amino acid metabolism: Lysine = 2-Oxoadipate + 2 NH4+ + 3 NADH,[1],0.0 ± 0.0^ mmol/g-DNA/2 days
same,Flux RXN 42 Amino acid metabolism: 2-Oxoadipate + CoA,[1],0.0 ± 0.0^ mmol/g-DNA/2 days
same,Flux RXN 43 Amino acid metabolism: Methionine + Serine + ATP + CoA + THF,[1],0.0 ± 0.0^ mmol/g-DNA/2 days
same,Flux RXN 44 Amino acid metabolism: Phenylalanine + O2 + NADH = Tyrosine,[1],0.1 ± 0.3^ mmol/g-DNA/2 days
same,Flux RXN 45 Amino acid metabolism: Glutamate + ATP + 2 NADPH = Proline,[1],1.5 ± 0.1 mmol/g-DNA/2 days
same,Flux RXN 46 Amino acid metabolism: Serine = Pyruvate + NH4+,[1],0.0 ± 0.0^ mmol/g-DNA/2 days
same,Flux RXN 47 Amino acid metabolism: Threonine + CoA to Glycine,[1],0.2 ± 0.2 mmol/g-DNA/2 days
same,Flux RXN 48 Amino acid metabolism: Tryptophan + 3 O2 + NADPH = 2-Oxoadipate + Alanine + CO2 + NH4+,[1],0.0 ± 0.0^ mmol/g-DNA/2 days
same,Flux RXN 49 Amino acid metabolism: Tyrosine + 2 O2,[1],0.2 ± 0.5^ mmol/g-DNA/2 days
same,Flux RXN 50 Amino acid metabolism: Valine + CoA,[1],3.8 ± 0.4 mmol/g-DNA/2 days
same,Flux RXN 51 Plasma exchange: Palmitate,[1],0.8 ± 0.1 mmol/g-DNA/2 days
same,Flux RXN 52 Plasma exchange: Acetoacetate,[1],0.0 ± 0.1 mmol/g-DNA/2 days
same,Flux RXN 53 Plasma exchange: Alanine,[1],0.5 ± 0.1 mmol/g-DNA/2 days
same,Flux RXN 54 Plasma exchange: Aspartate,[1],2.9 ± 0.2 mmol/g-DNA/2 days
same,Flux RXN 55 Plasma exchange: Cysteine,[1],0.0 ± 0.0^ mmol/g-DNA/2 days
same,Flux RXN 56 Plasma exchange: Glutamate,[1],0.9 ± 0.1 mmol/g-DNA/2 days
same,Flux RXN 57 Plasma exchange: Glycine,[1],6.4 ± 0.4 mmol/g-DNA/2 days
same,Flux RXN 58 Plasma exchange: Serine,[1],6.2 ± 0.4^ mmol/g-DNA/2 days
same,Flux RXN 59 Plasma exchange: Tyrosine,[1],0.1 ± 0.2^ mmol/g-DNA/2 days
same,Flux RXN 60 Plasma exchange: O2 (calculated oxygen uptake rate),[1],202.1 ±59.1 *^ mmol/g-DNA/2 days
same,Flux RXN 61 Plasma exchange: CO2,[1],582.8 ± 66.5 mmol/g-DNA/2 days
same,Flux RXN 62 Plasma exchange: NH4+,[1],16.5 ± 1.3 mmol/g-DNA/2 days
same,Flux RXN 63 Mitochondrial exchange: Pyruvate,[1],357.2 ± 37.5 mmol/g-DNA/2 days
same,"Flux RXN 64 Mitochondrial exchange: Malate in, Citrate out",[1],101.5 ± 16.0 mmol/g-DNA/2 days
same,"Flux RXN 65 Mitochondrial exchange: 2-Oxoglutarate in, Malate out",[1],26.4 ± 6.9 mmol/g-DNA/2 days
same,"Flux RXN 66 Mitochondrial exchange: Pi in, Malate out",[1],59.9 ± 9.2 mmol/g-DNA/2 days
same,Decrease of flux through phosphoenolpyruvate carboxykinase,phenylacetate,40%
same,Reduction of de novo fatty acid synthesis,phenylacetate,~40%
same,Reduction of triglyceride accumulation,phenylacetate,40%
same,Increase of flux through glycolysis,"phenylacetate (5 and 10 mM), day 12 post-induction",15˜60%
same,Decrease of total flux of pyruvate into the mitochondrial reactions,phenylacetate at the higher concentration (10 mM),29%
same,Decrease of flux through the PPP,"phenylacetate, noted only for the 5 mM condition",83%
same,Increase of fluxes through other lipogenic reactions (including esterification),"phenylacetate, higher concentration having the larger effect",64˜75%
